Active and inactive are the calls of the source. No cut-off for these calls is given here.
Experiments:
Mus musculus [1] = test: Anti-hyperglycemic activity in type-2 diabetes db/db mouse assessed as regulation of blood glucose level at 3 to 600 nmol/kg, sc measured up to 96 hrs; assay type: functional, organism-based
[2] = Tmax in Sprague-Dawley rat at 1 mg/kg, sc measured up to 48 hrs by LC-MS/MS analysis; assay type: ADME, organism-based; details: in vivo
[3] = Selectivity ratio of EC50 for agonist activity at GLP-1R (unknown origin) expressed in HEK293 cells co-expressing CRE-Luc assessed as increase in intracellular cAMP accumulation in presence of 2% HSA to EC50 for agonist activity at GLP-1R (unknown origin) expressed in HEK293 cells co-expressing CRE-Luc assessed as increase in intracellular cAMP accumulation; assay type: cell-based
[4] = Half life in BALB/c mouse at 0.5 mg/kg, sc measured up to 48 hrs by LC-MS/MS analysis; assay type: ADME, organism-based; details: in vivo
[5] = Clearance in BALB/c mouse at 0.5 mg/kg, iv measured up to 48 hrs by LC-MS/MS analysis; assay type: ADME, organism-based; details: in vivo
[6] = target: T1, Glucagon-like peptide 1 receptor (Homo sapiens, UniProt P43220); test: Agonist activity at GLP-1R (unknown origin) expressed in HEK293 cells co-expressing CRE-Luc assessed as increase in intracellular cAMP accumulation in presence of 10% FBS by luciferase based assay; assay type: functional, cell-based; details: read-out: EC50
T1 sequence (P43220 whole entry): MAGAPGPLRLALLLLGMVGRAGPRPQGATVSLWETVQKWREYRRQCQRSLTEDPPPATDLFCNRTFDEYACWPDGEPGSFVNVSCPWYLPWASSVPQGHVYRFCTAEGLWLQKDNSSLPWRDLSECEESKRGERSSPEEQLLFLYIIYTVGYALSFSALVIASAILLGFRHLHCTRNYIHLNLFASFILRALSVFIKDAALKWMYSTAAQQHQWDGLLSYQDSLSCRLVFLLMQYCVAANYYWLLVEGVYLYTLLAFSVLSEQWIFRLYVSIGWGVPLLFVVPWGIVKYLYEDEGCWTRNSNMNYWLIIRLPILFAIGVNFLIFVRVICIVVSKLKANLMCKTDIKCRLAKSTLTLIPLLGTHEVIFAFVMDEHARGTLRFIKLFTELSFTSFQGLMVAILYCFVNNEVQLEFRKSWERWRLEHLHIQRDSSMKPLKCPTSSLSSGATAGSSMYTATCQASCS

Mus musculus [7] = test: Anti-hyperglycemic activity in 16 hr-fasted type-2 diabetes db/db mouse at 100 nmol/kg, sc pretreated for 0.5 hrs followed by glucose administration measured for 2 hrs by OGTT method; assay type: functional, organism-based; details: time 2.5 hrs
[8] = AUClast in Sprague-Dawley rat at 1 mg/kg, sc measured up to 48 hrs by LC-MS/MS analysis; assay type: ADME, organism-based; details: in vivo
[9] = MRT in BALB/c mouse at 0.5 mg/kg, sc measured up to 48 hrs by LC-MS/MS analysis; assay type: ADME, organism-based; details: in vivo
[10] = MRT in Sprague-Dawley rat at 1 mg/kg, sc measured up to 48 hrs by LC-MS/MS analysis; assay type: ADME, organism-based; details: in vivo
[11] = Stability in Sprague-Dawley rat plasma assessed as compound remaining measured after 96 hrs by RP-HPLC analysis; assay type: ADME, cell-free; details: read-out: Stability
Albumin = Albumin (Homo sapiens, UniProt P02768); test: Binding affinity to human serum albumin immobilized on AR2G biosensor assessed as dissociation constant incubated for 3 mins by BLI assay; assay type: ADME
Albumin, sequence (P02768 whole entry): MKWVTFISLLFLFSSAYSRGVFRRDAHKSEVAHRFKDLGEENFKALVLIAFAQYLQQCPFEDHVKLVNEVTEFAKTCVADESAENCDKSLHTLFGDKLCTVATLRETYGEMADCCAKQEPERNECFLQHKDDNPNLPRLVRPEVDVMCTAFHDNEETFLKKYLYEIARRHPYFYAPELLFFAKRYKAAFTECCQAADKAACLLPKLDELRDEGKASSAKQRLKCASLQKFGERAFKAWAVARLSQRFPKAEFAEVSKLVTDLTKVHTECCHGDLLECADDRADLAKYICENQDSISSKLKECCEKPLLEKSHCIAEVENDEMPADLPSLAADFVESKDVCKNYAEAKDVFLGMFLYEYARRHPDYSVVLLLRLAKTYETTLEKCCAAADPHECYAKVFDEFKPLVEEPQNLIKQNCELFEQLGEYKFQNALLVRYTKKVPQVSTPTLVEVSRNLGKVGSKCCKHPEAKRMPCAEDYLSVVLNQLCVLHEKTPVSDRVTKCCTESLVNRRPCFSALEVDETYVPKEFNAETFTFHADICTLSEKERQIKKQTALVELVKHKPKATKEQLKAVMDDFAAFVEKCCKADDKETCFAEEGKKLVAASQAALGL

Dipeptidyl peptidase 4 [12] = target: T2, Dipeptidyl peptidase 4 (Rattus norvegicus, UniProt P14740); test: Stability in Sprague-Dawley rat plasma assessed as DPP4-mediated drug degradation by measuring Lys(CBB) metabolite formation measured after 96 hrs by mass spectrometry; assay type: ADME, cell-free
T2 sequence (P14740 whole entry): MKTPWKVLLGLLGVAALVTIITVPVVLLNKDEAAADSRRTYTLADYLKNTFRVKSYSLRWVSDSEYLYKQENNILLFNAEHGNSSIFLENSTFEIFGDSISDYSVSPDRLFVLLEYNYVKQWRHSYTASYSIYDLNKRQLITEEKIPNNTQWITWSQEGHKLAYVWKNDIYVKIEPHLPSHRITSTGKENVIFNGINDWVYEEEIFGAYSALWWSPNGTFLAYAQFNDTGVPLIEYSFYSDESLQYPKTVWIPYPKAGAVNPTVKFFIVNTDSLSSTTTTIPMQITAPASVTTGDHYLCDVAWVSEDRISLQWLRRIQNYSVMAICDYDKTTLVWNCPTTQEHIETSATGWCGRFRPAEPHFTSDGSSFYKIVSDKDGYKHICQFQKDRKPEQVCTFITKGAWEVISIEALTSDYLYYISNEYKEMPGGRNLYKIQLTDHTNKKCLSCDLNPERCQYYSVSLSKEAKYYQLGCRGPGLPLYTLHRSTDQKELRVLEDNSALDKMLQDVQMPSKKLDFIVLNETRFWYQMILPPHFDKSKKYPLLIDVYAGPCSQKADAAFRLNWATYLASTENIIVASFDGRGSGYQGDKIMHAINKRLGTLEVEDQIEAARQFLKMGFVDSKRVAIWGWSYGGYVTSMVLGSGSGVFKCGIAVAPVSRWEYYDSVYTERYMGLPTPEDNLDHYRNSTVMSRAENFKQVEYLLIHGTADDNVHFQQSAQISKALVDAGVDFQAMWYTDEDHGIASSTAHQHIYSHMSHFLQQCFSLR

[13] = AUClast in BALB/c mouse at 0.5 mg/kg, iv measured up to 48 hrs by LC-MS/MS analysis; assay type: ADME, organism-based; details: in vivo
[14] = target: T1, Glucagon-like peptide 1 receptor; test: Agonist activity at GLP-1R (unknown origin) expressed in HEK293 cells co-expressing CRE-Luc assessed as increase in intracellular cAMP accumulation in presence of 2% HSA by luciferase based assay; assay type: functional, cell-based; details: read-out: EC50
Dipeptidyl peptidase 4 [15] = target: T2, Dipeptidyl peptidase 4; test: Stability in Sprague-Dawley rat plasma assessed as DPP4-mediated drug degradation by measuring Lys(CBB)Gly metabolite formation measured after 96 hrs by mass spectrometry; assay type: ADME, cell-free
[16] = Clearance in Sprague-Dawley rat at 1 mg/kg, iv measured up to 48 hrs by LC-MS/MS analysis; assay type: ADME, organism-based; details: in vivo
[17] = AUClast in BALB/c mouse at 0.5 mg/kg, sc measured up to 48 hrs by LC-MS/MS analysis; assay type: ADME, organism-based; details: in vivo
Mus musculus [18] = test: Anti-hyperglycemic activity in type-2 diabetes db/db mouse assessed as blood glucose level at 3 to 600 nmol/kg, sc measured up to 48 hrs; assay type: functional; details: dose 3-600 nmol/kg
Mus musculus [19] = test: Anti-hyperglycemic activity in 16 hr-fasted type-2 diabetes db/db mouse assessed as homeostasis of blood glucose level at 100 nmol/kg, sc pretreated for 0.5 hrs followed by glucose administration measured for 2 hrs; assay type: functional, organism-based; details: time 2.5 hrs
[20] = Binding affinity to collagen type I (unknown origin) immobilized on AR2G biosensor assessed as dissociation constant incubated for 3 mins by BLI assay; design: species or system Homo sapiens
[21] = Apparent volume of distribution in Sprague-Dawley rat at 1 mg/kg, iv measured up to 48 hrs by LC-MS/MS analysis; assay type: ADME, organism-based; details: in vivo, read-out: Vz
Mus musculus [22] = test: Anti-hyperglycemic activity in type-2 diabetes db/db mouse assessed as reduction in food intake at 100 nmol/kg, sc measured for 48 hrs; assay type: functional, organism-based
Mus musculus [23] = test: Anti-hyperglycemic activity in well-fed type-2 diabetes db/db mouse assessed as blood glucose level at 100 nmol/kg, sc administered on every 48 hrs; assay type: functional
[24] = AUClast in Sprague-Dawley rat at 1 mg/kg, iv measured up to 48 hrs by LC-MS/MS analysis; assay type: ADME, organism-based; details: in vivo
[25] = Apparent volume of distribution in BALB/c mouse at 0.5 mg/kg, iv measured up to 48 hrs by LC-MS/MS analysis; assay type: ADME, organism-based; details: in vivo, read-out: Vz
[26] = target: T1, Glucagon-like peptide 1 receptor; test: Agonist activity at GLP-1R (unknown origin) expressed in HEK293 cells co-expressing CRE-Luc assessed as increase in intracellular cAMP accumulation by luciferase based assay; assay type: functional, cell-based; details: read-out: EC50
[27] = Half life in Sprague-Dawley rat at 1 mg/kg, sc measured up to 48 hrs by LC-MS/MS analysis; assay type: ADME, organism-based; details: in vivo
Mus musculus [28] = test: Anti-hyperglycemic activity in type-2 diabetes db/db mouse assessed as regulation of blood glucose level administered subcutaneously measured up to 96 hrs; assay type: functional, organism-based; details: dose 3-600 nmol/kg, route sc
[29] = Tmax in BALB/c mouse at 0.5 mg/kg, sc measured up to 48 hrs by LC-MS/MS analysis; assay type: ADME, organism-based; details: in vivo
[30] = Stability in Sprague-Dawley rat plasma assessed as drug degradation by measuring half life measured after 96 hrs by RP-HPLC analysis; assay type: ADME, cell-free

CCOc1ccc(Nc2ccc(/C(=C3C=C/C(=[N+](\CC)Cc4cccc(S(=O)(=O)[O-])c4)C=C\3C)c3ccc(N(CC)Cc4cccc(S(=O)(=O)NCCCCCC(=O)NCCOCCOCCOCCOCCOCCOCCOCCOCCC(=O)NCCCC[C@H](NC(=O)[C@@H](NC(=O)[C@H](CC(C)C)NC(=O)[C@H](Cc5c[nH]c6ccccc56)NC(=O)[C@H](C)NC(=O)[C@@H](NC(=O)[C@H](Cc5ccccc5)NC(=O)[C@H](CCC(=O)O)NC(=O)[C@H](CCCNC(=N)N)NC(=O)[C@H](C)NC(=O)[C@H](C)NC(=O)[C@H](CCC(N)=O)NC(=O)CNC(=O)[C@H](CCC(=O)O)NC(=O)[C@H](CC(C)C)NC(=O)[C@H](Cc5ccc(O)cc5)NC(=O)[C@H](CO)NC(=O)[C@H](CO)NC(=O)[C@@H](NC(=O)[C@H](CC(=O)O)NC(=O)[C@H](CO)NC(=O)[C@@H](NC(=O)[C@H](Cc5ccccc5)NC(=O)[C@@H](NC(=O)CNC(=O)[C@H](CCC(=O)O)NC(=O)CNC(=O)[C@@H](N)Cc5c[nH]cn5)[C@@H](C)O)[C@@H](C)O)C(C)C)[C@@H](C)CC)C(C)C)C(=O)NCC(=O)N[C@@H](CCCNC(=N)N)C(N)=O)c4)cc3C)cc2)cc1
EC50 (Mus musculus [1]): 30 nmol/kg
Tmax [2]: 12 h
Ratio EC50 [3]: 5.38
half-life [4]: 32 h
clearance [5]: 0.0667 mL/min/kg
EC50 [6]: 0.21 pM
Activity (Mus musculus [7]): Active
AUC [8]: 28.81 h/µg/mL
MRT [9]: 18.1 h
MRT [10]: 18 h
remaining at 96 h [11]: 40%
Kd (Albumin): 520000 pM
Drug metabolism (Dipeptidyl peptidase 4 [12]): metabolite_detected
AUC [13]: 111.886 h/µg/mL
EC50 [14]: 1.99 pM
Drug metabolism (Dipeptidyl peptidase 4 [15]): metabolite_detected
clearance [16]: 0.25 mL/min/kg
AUC [17]: 123.884 h/µg/mL
Activity (Mus musculus [18]): <10 mM
Activity (Mus musculus [19]): Active
Kd [20]: 390000 pM
Vd [21]: 0.15 L/kg
Activity (Mus musculus [22]): Active
Activity (Mus musculus [23]): <10 mM
AUC [24]: 67.28 h/µg/mL
Vd [25]: 0.056 L/kg
EC50 [26]: 0.37 pM
half-life [27]: 32 h
Activity (Mus musculus [28]): Dose-dependent-effect
Tmax [29]: 12 h
half-life [30]: 24 h
